In US8192962B2, “Processes for detecting toxic substances” (Daikin Industries, Ltd., priority 2001, dated 2012):

Tested on: Detoxification protein genes
Experiment: DNA chip mRNA expression in yeast, detoxification protein genes (Table 8)
Assay type: cell-based, Saccharomyces cerevisiae S288C
Method in brief: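 Chemical exposure: 2 h, log-phase S. cerevisiae S288C, YPD, 25° C., dose set to inhibit growth without death. Profiling: mRNA labeled by reverse transcription with Cy3- or Cy5-dUTP, hybridized to whole-genome array. Output: fluorescence ratio against untreated culture.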

Na2As [(1)]
The level of expressed mRNA in the presence of chemical substance/The level of expressed mRNA in the absence of chemical substance (yeast gene YBL064C): 2.6 | The level of expressed mRNA in the presence of chemical substance/The level of expressed mRNA in the absence of chemical substance (yeast gene YBR008C): 3.0 | The level of expressed mRNA in the presence of chemical substance/The level of expressed mRNA in the absence of chemical substance (yeast gene YBR145W): 1.5 | The level of expressed mRNA in the presence of chemical substance/The level of expressed mRNA in the absence of chemical substance (yeast gene YBR244W): 0.6 | The level of expressed mRNA in the presence of chemical substance/The level of expressed mRNA in the absence of chemical substance (yeast gene YBR293W): 1.9 | The level of expressed mRNA in the presence of chemical substance/The level of expressed mRNA in the absence of chemical substance (yeast gene YCL035C): 2.0 | The level of expressed mRNA in the presence of chemical substance/The level of expressed mRNA in the absence of chemical substance (yeast gene YCL069W): 0.9 | The level of expressed mRNA in the presence of chemical substance/The level of expressed mRNA in the absence of chemical substance (yeast gene YCR083W): 1.1 | The level of expressed mRNA in the presence of chemical substance/The level of expressed mRNA in the absence of chemical substance (yeast gene YDL100C): 1.0 | The level of expressed mRNA in the presence of chemical substance/The level of expressed mRNA in the absence of chemical substance (yeast gene YDL168W): 2.3 | The level of expressed mRNA in the presence of chemical substance/The level of expressed mRNA in the absence of chemical substance (yeast gene YDR256C): 0.8 | The level of expressed mRNA in the presence of chemical substance/The level of expressed mRNA in the absence of chemical substance (yeast gene YDR453C): 1.1 | The level of expressed mRNA in the presence of chemical substance/The level of expressed mRNA in the absence of chemical substance (yeast gene YDR513W): 2.2 | The level of expressed mRNA in the presence of chemical substance/The level of expressed mRNA in the absence of chemical substance (yeast gene YDR538W): 0.9 | The level of expressed mRNA in the presence of chemical substance/The level of expressed mRNA in the absence of chemical substance (yeast gene YEL027W): 1.2 | The level of expressed mRNA in the presence of chemical substance/The level of expressed mRNA in the absence of chemical substance (yeast gene YEL065W): 0.3 | The level of expressed mRNA in the presence of chemical substance/The level of expressed mRNA in the absence of chemical substance (yeast gene YER185W): 2.0 | The level of expressed mRNA in the presence of chemical substance/The level of expressed mRNA in the absence of chemical substance (yeast gene YFL050C): 0.7 | The level of expressed mRNA in the presence of chemical substance/The level of expressed mRNA in the absence of chemical substance (yeast gene YGL013C): 0.9 | The level of expressed mRNA in the presence of chemical substance/The level of expressed mRNA in the absence of chemical substance (yeast gene YGL254W): 1.2 | The level of expressed mRNA in the presence of chemical substance/The level of expressed mRNA in the absence of chemical substance (yeast gene YGR088W): 1.3 | The level of expressed mRNA in the presence of chemical substance/The level of expressed mRNA in the absence of chemical substance (yeast gene YGR138C): 1.1 | The level of expressed mRNA in the presence of chemical substance/The level of expressed mRNA in the absence of chemical substance (yeast gene YGR197C): 1.1 | The level of expressed mRNA in the presence of chemical substance/The level of expressed mRNA in the absence of chemical substance (yeast gene YGR209C): 1.6 | The level of expressed mRNA in the presence of chemical substance/The level of expressed mRNA in the absence of chemical substance (yeast gene YGR224W): 0.9 | The level of expressed mRNA in the presence of chemical substance/The level of expressed mRNA in the absence of chemical substance (yeast gene YHL040C): 1.6 | The level of expressed mRNA in the presence of chemical substance/The level of expressed mRNA in the absence of chemical substance (yeast gene YHL047C): 0.6 | The level of expressed mRNA in the presence of chemical substance/The level of expressed mRNA in the absence of chemical substance (yeast gene YHR008C): 1.3 | The level of expressed mRNA in the presence of chemical substance/The level of expressed mRNA in the absence of chemical substance (yeast gene YHR048W): 2.5 | The level of expressed mRNA in the presence of chemical substance/The level of expressed mRNA in the absence of chemical substance (yeast gene YHR053C): 3.5 | The level of expressed mRNA in the presence of chemical substance/The level of expressed mRNA in the absence of chemical substance (yeast gene YHR055C): 4.4 | The level of expressed mRNA in the presence of chemical substance/The level of expressed mRNA in the absence of chemical substance (yeast gene YIR002C): 0.8 | The level of expressed mRNA in the presence of chemical substance/The level of expressed mRNA in the absence of chemical substance (yeast gene YIR038C): 1.3 | The level of expressed mRNA in the presence of chemical substance/The level of expressed mRNA in the absence of chemical substance (yeast gene YJL101C): 2.1 | The level of expressed mRNA in the presence of chemical substance/The level of expressed mRNA in the absence of chemical substance (yeast gene YJR104C): 1.4 | The level of expressed mRNA in the presence of chemical substance/The level of expressed mRNA in the absence of chemical substance (yeast gene YKL026C): 2.7 | The level of expressed mRNA in the presence of chemical substance/The level of expressed mRNA in the absence of chemical substance (yeast gene YKL064W): 0.6 | The level of expressed mRNA in the presence of chemical substance/The level of expressed mRNA in the absence of chemical substance (yeast gene YKR066C): 0.9 | The level of expressed mRNA in the presence of chemical substance/The level of expressed mRNA in the absence of chemical substance (yeast gene YKR105C): 0.8 | The level of expressed mRNA in the presence of chemical substance/The level of expressed mRNA in the absence of chemical substance (yeast gene YKR106W): 1.3 | The level of expressed mRNA in the presence of chemical substance/The level of expressed mRNA in the absence of chemical substance (yeast gene YLL028W): 0.6 | The level of expressed mRNA in the presence of chemical substance/The level of expressed mRNA in the absence of chemical substance (yeast gene YLL057C): 2.2 | The level of expressed mRNA in the presence of chemical substance/The level of expressed mRNA in the absence of chemical substance (yeast gene YLL060C): 12.5 | The level of expressed mRNA in the presence of chemical substance/The level of expressed mRNA in the absence of chemical substance (yeast gene YLR043C): 1.4 | The level of expressed mRNA in the presence of chemical substance/The level of expressed mRNA in the absence of chemical substance (yeast gene YLR046C): 0.7 | The level of expressed mRNA in the presence of chemical substance/The level of expressed mRNA in the absence of chemical substance (yeast gene YML028W): 1.0 | The level of expressed mRNA in the presence of chemical substance/The level of expressed mRNA in the absence of chemical substance (yeast gene YML116W): 4.1 | The level of expressed mRNA in the presence of chemical substance/The level of expressed mRNA in the absence of chemical substance (yeast gene YMR015C): 0.7 | The level of expressed mRNA in the presence of chemical substance/The level of expressed mRNA in the absence of chemical substance (yeast gene YMR038C): 1.9 | The level of expressed mRNA in the presence of chemical substance/The level of expressed mRNA in the absence of chemical substance (yeast gene YNL239W): 1.0 | The level of expressed mRNA in the presence of chemical substance/The level of expressed mRNA in the absence of chemical substance (yeast gene YNL241C): 1.3 | The level of expressed mRNA in the presence of chemical substance/The level of expressed mRNA in the absence of chemical substance (yeast gene YNL259C): 1.6 | The level of expressed mRNA in the presence of chemical substance/The level of expressed mRNA in the absence of chemical substance (yeast gene YOL158C): 0.7 | The level of expressed mRNA in the presence of chemical substance/The level of expressed mRNA in the absence of chemical substance (yeast gene YOR031W): 2.6 | The level of expressed mRNA in the presence of chemical substance/The level of expressed mRNA in the absence of chemical substance (yeast gene YOR153W): 1.6 | The level of expressed mRNA in the presence of chemical substance/The level of expressed mRNA in the absence of chemical substance (yeast gene YOR247W): 1.7 | The level of expressed mRNA in the presence of chemical substance/The level of expressed mRNA in the absence of chemical substance (yeast gene YOR251C): 1.1 | The level of expressed mRNA in the presence of chemical substance/The level of expressed mRNA in the absence of chemical substance (yeast gene YOR273C): 0.7 | The level of expressed mRNA in the presence of chemical substance/The level of expressed mRNA in the absence of chemical substance (yeast gene YPL163C): 0.6 | The level of expressed mRNA in the presence of chemical substance/The level of expressed mRNA in the absence of chemical substance (yeast gene YPR200C): 47.7
